From patent publication US10167262B2, “Herbicidal substituted 3-arylpyrazoles” (FMC CORPORATION, priority 2014, dated 2019)
Values joined by “and” are separate entries in the source; they are usually repeats but may differ in a detail not shown here. Identical values can stand only once.

How the values were obtained:
Assay in all cases: Test H postemergence mixture test of compound 39 with commercial herbicides, observed and Colby expected effect 0-100
Type in all cases: in vivo
Conditions in all cases: Cmpd 39 alone, 14 days after treatment
[1] = test system: Kochia (KCHSC, Kochia scoparia)
Description: (§1) This test evaluated the effect of mixtures of compound 39 with three commercial herbicides on five plant species. Seeds of plant species selected from corn (ZEAMD, Zea mays), soybean (GLXMA, Glycine max), palmer pigweed (AMAPA, Amaranthus palmeri), waterhemp (common waterhemp, AMATA, Amaranthus rudis), and Kochia (KCHSC, Kochia scoparia) were planted in pots containing Redi-Earth® planting medium (Scotts Company, 14111 Scottslawn Road, Marysville, Ohio 43041) comprising spaghnum peat moss, vermiculite, wetting agent and starter nutrients and treated with postemergence applications of test chemicals formulated in a non-phytotoxic solvent mixture which included a surfactant and applied using a volume of 299 L/ha. Each treatment was replicated four times. Treated plants and controls were maintained in a greenhouse using supplemental lighting to maintain a photoperiod of about 16 h; daytime and nighttime temperatures were about 24-30° C. and 19-21° C., respectively. Nutrients were applied using a balanced fertilizer applied through the watering system. At 14 days after treatment, all species were compared to controls and visually evaluated. Plant response ratings were calculated as the mean of the four replicates, are summarized in Tables H1 through H6, and are based on a scale of 0 to 100 where 0 is no effect and 100 is complete control. A dash (-) response means no test result.
(§2) Colby's Equation was used to determine the herbicidal effects expected from the mixtures. Colby's Equation (Colby, S. R. “Calculating Synergistic and Antagonistic Responses of Herbicide Combinations,” Weeds, 15(1), pp 20-22 (1967)) calculates the expected additive effect of herbicidal mixtures and for two active ingredients is of the form: Pa+b=Pa+Pb−(PaPb/100) • where • Pa+b is the percentage effect of the mixture expected from additive contribution of the individual components: • Pa is the observed percentage effect of the first active ingredient at the same use rate as in the mixture, and • Pb is the observed percentage effect of the second active ingredient at the same use rate as in the mixture. In the following Tables, rates are shown in grams of active ingredient per hectare (g a.i./ha); “Obsd.” is the observed effect. “Exp.” is the expected effect calculated from Colby's Equation.

corn (ZEAMD, Zea mays) = test system: corn (ZEAMD, Zea mays)
Description: as §1, §2

[2] = test system: waterhemp (common waterhemp, AMATA, Amaranthus rudis)
Description: as §1, §2

[3] = test system: palmer pigweed (AMAPA, Amaranthus palmeri)
Description: as §1, §2

[4] = test system: soybean (GLXMA, Glycine max)
Description: as §1, §2

SMILES: C#CCn1cc(C(=O)c2ccccc2)c(-c2cc(Cl)cc(Cl)c2)n1 [Compound 39, [3-(3,5-dichlorophenyl)-1-(2-propyn-1-yl)-1H-pyrazol-4-yl]phenylmethanone]
- KCHSC Obsd. (observed effect) ([1]; 16 g a.i./ha): 47
- KCHSC Obsd. (observed effect) ([1]; 31 g a.i./ha): 60 and 47
- KCHSC Obsd. (observed effect) ([1]; 62 g a.i./ha): 64
- ZEAMD Obsd. (observed effect) (corn (ZEAMD, Zea mays); 16 g a.i./ha): 0
- ZEAMD Obsd. (observed effect) (corn (ZEAMD, Zea mays); 31 g a.i./ha): 0
- ZEAMD Obsd. (observed effect) (corn (ZEAMD, Zea mays); 62 g a.i./ha): 0
- AMATA Obsd. (observed effect) ([2]; 16 g a.i./ha): 75
- AMATA Obsd. (observed effect) ([2]; 31 g a.i./ha): 88 and 83
- AMATA Obsd. (observed effect) ([2]; 62 g a.i./ha): 79
- AMAPA Obsd. (observed effect) ([3]; 16 g a.i./ha): 55
- AMAPA Obsd. (observed effect) ([3]; 31 g a.i./ha): 86 and 78
- AMAPA Obsd. (observed effect) ([3]; 62 g a.i./ha): 79 and 76
- GLXMA Obsd. (observed effect) ([4]; 16 g a.i./ha): 0
- GLXMA Obsd. (observed effect) ([4]; 31 g a.i./ha): 0
- GLXMA Obsd. (observed effect) ([4]; 62 g a.i./ha): 0
